Patent publication US20070286886A1, “Materials And Methods For Inducing Apoptosis In Adipocytes” (University of Tennessee Research Foundation, priority 2004, published 2007)

Tests used:
[1] = system: 3T3-L1 and UCP2-transfected 3T3-L1 cells; assay: ATP production (microplate luminometer) in adipocytes; type: cell-based; conditions: 4 h
Description: Adipocytes were incubated with adipocyte medium for 4 h with or without 1α,25-(OH)2-D3. ATP levels were measured using ENLITEN Total ATP Rapid Biocontamination Detection Kit (Promega, Madison, […].) according to the manufacturer's instructions. Cellular ATP was extracted as described previously and measured using a microplate luminometer (Labsystem, Helsinki, Finland). The integration time of the luminometer was set at 1 s with normal gain. Measurement of cytosolic Ca^2+ ([Ca^2+]c) and mitochondrial calcium([Ca^2+]m)

[2] = system: 3T3-L1 and L1-UCP2 cells; assay: Adipocyte apoptosis in 3T3-L1 and L1-UCP2 cells; type: cell-based
Description: 3T3-L1 preadipocytes were incubated at a density of 8000 cells/cm2 (10 cm2 dish) and grown in Dulbecco's modified Eagle's medium (DMEM) containing 10% FBS and antibiotics (adipocyte medium) at 37° C. in 5% CO2 in air. Confluent preadipocytes were induced to differentiate with a standard differentiation medium consisting of DMEM-F10 (1:1, vol/vol) medium supplemented with 1% FBS, 1 μM dexamethasone, IBMX (0.5 mM), and antibiotics (1% penicillin-streptomycin). Preadipocytes were maintained in this differentiation medium for 3 days and subsequently cultured in adipocyte medium. Cultures were re-fed every 2-3 days to allow 90% cells to reach full differentiation before they were chemically treated. Chemicals were freshly diluted in adipocyte medium before treatment. […] Cell viability was measured via trypan blue exclusion. […]
Adipocyte caspase-1, caspase-3, Bcl-2, and Bax mRNA were quantitatively measured using a Smart Cycler Real Time PCR System (Cepheid, Sunnyvale, Calif.) with a TaqMan 1000 Core Reagent Kit (Applied Biosystems, Branchburg, N.J.). […] Reactions of quantitative RT-PCR for standards and unknown samples were Cepheid, Sunnyvale, Calif.) and TaqMan Real Time PCR Core Kit. The mRNA quantitation for each sample was further normalized using the corresponding 18 s quantitation, with a forward primer, 5′-[…]-3′, and a reverse primer, 5′-[…]-3′.

In the case of `C=C1/C(=C\C=C2/CCC[C@]3(C)[C@@H]([C@H](C)CCCC(C)(C)O)CC[C@@H]23)C[C@@H](O)C[C@@H]1O` [1α,25-(OH)2-D3, 1α,25-dihydroxyvitamin D3], the ATP production ([1]; high dose (100 nM), P<0.05) is reported as “inhibited”, the ATP production ([1]; low dose, P<0.01) is reported as “markedly increased” and the apoptosis ([2]; high dose (100 nM), 3T3-L1 and L1-UCP2 cells, P<0.05) is reported as “stimulated”. The UCP2 overexpression-induced apoptosis ([2]; physiological doses (0.1-10 nM), L1-UCP2 cells, P<0.01) was “protected”.
